According to PMC9241695, “Selective Metal Chelation by a Thiosemicarbazone Derivative Interferes with Mitochondrial Respiration and Ribosome Biogenesis in Candida albicans” (Microbiology Spectrum, 2022):
≈ marks a conversion by molar mass, not a printed value.

Key:
C. albicans G5 = test: microbe, parasite or virus in culture; type: cell-based; details: Candida albicans, G5
How it was run: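 CLSI microbroth dilution in RPMI1640, inoculum 1 × 10^3 CFU/mL, compounds 0.0156–64 μg/mL final, 24 h at 35 °C. MIC read as visible growth inhibition versus control, in duplicate.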

SOD = SOD activity in treated cells; type: cell-based, Candida albicans; details: 0.5 μg/mL or above, 6 h
Procedure: Determination of SOD activity. SOD activity was measured using the Superoxide Dismutase Activity Assay Kit (Njjcbio, Nanjing, China) following the manufacturer's instructions. An overnight culture of C. albicans SC5314 was adjusted to 1 × 10^7 cells/mL with RPMI1640 medium and treated with 19ak at a final concentration of 0, 0.125, 0.25, 0.5, or 1 μg/mL for 6 h. After collection by centrifugation, the cells were broken by glass beads in extraction buffer and centrifuged at 4°C. The absorbance of the supernatant of each sample was measured with a microplate reader at450 nm.
Determination of catalase (CAT) activity. CAT activity was measured by using a Catalase Assay Kit (Solarbio, Beijing, China) following the manufacturer's instructions. An overnight culture of C. albicans SC5314 was adjusted to 1 × 10^6 cells/mL with RPMI1640 medium and treated as described above for SOD activity.
The decomposition of H2O2 is directly accompanied by a decrease in absorbance at 240 nm, and the difference in absorbance per unit time (ΔA240) is a measure of […]
Quantitative real-time polymerase chain reaction (qPCR) analysis. C. albicans SC5314 cells (1 × 10^6 cells/mL) were incubated with or without 19ak (0.5,2 μg/mL) in RPMI1640 medium for 6 h. Total RNA was extracted using the hot phenol method, and the RNA quality was analyzed using a spectrophotometer (Eppendorf, Hamburg, Germany). […]

C. albicans SC5314 cells = test: Intracellular labile zinc levels using Zinbo-5; type: cell-based, Candida albicans; details: 6 h
Procedure: C. albicans SC5314 cells grown overnight were pelleted, washed three times with PBS buffer, and resuspended to obtain an OD600 of 2.0. Next, the cells were incubated with various concentrations of 19ak in 96-well plates at 30°C for 6 h, followed by incubation with 10 μM Zinbo-5 for 30 min. Finally, fluorescence was measured in a microplate reader (excitation at 355 nm, emission at 485 nm). Similar approach was used in detection of intracellular zinc levels of mammalian cells.

C. albicans SC5314 = test: Time-growth curve with antioxidants; type: cell-based, Candida albicans; details: SC medium, 5 mM NAC or 5 mM Tu, 0.25 or 0.5 μg/mL 19ak, 15 h
Procedure: albicans SC5314 cells (1 × 10^6 cells/mL) were challenged with various doses of 19ak and incubated at 30°C for 6 h, followed by staining with 20 μM Rh123 for 30 min in the dark and detection by flow cytometry (Becton Dickinson, CA, USA).
Measurement of intracellular ATP production. To explore whether 19ak affects intracellular ATP content by damaging mitochondria, we treated C. albicans SC5314 cells (1 × 10^6 cells/mL) with different doses of 19ak. After lysing the cells in lysis buffer, ATP levels were measured with the ATP Assay Kit (Beyotime, Haimen, China) according to the manufacturer's instructions. Cellular protein concentrations were determined using a BCA Protein Assay Kit (Beyotime, Haimen, China). The intracellular ATP content was calculated by referring to a standard curve and normalized using the protein content of each sample for expression as nmol/mg […]
ROS production assay. […] The fluorescence intensity was then measured by flow cytometry, and the data were analyzed with Win MDI 2.9 software.
Influence of oxidant or antioxidant molecules on 19ak activity. […] The effects of NAC, Tu and DTT on the growth of 19ak treated fungal cells were measured using a time-growth curve. […] A microplate reader was used to measure the absorbance at600 nm, and the growth curves were plotted.

## C/C(=N\NC(=S)N(C)C)c1ccccn1 [Compound 19ak]
C. albicans G5
  MIC80: 1 µg/mL (≈ 4.5 µM)
SOD
  SOD activity: increased
C. albicans SC5314 cells; 0.125 μg/mL
  Labile zinc ions (Zinbo-5 fluorescence): decreased
C. albicans SC5314 cells; 1 μg/mL
  Reduction of intracellular zinc ions: approximately 59.6%
C. albicans SC5314
  Effect of antioxidants NAC and Tu on antifungal activity (cell growth monitoring): greatly enhanced the antifungal activity
